Data published in ChEMBL document CHEMBL1143093 (Bioorg Med Chem Lett, 2008).

What was measured:
[1] = target: Sodium-dependent noradrenaline transporter (Homo sapiens, UniProt P23975); assay: Inhibition of norepinephrine uptake at human NET expressed in HEK293 cells; assay type: cell-based
[2] = target: Sodium-dependent dopamine transporter (Homo sapiens, UniProt Q01959); assay: Inhibition of dopamine uptake at human DAT expressed in HEK293 cells; assay type: cell-based
[3] = target: Sodium-dependent serotonin transporter (Homo sapiens, UniProt P31645)
Sodium-dependent serotonin transporter, sequence (P31645 whole entry): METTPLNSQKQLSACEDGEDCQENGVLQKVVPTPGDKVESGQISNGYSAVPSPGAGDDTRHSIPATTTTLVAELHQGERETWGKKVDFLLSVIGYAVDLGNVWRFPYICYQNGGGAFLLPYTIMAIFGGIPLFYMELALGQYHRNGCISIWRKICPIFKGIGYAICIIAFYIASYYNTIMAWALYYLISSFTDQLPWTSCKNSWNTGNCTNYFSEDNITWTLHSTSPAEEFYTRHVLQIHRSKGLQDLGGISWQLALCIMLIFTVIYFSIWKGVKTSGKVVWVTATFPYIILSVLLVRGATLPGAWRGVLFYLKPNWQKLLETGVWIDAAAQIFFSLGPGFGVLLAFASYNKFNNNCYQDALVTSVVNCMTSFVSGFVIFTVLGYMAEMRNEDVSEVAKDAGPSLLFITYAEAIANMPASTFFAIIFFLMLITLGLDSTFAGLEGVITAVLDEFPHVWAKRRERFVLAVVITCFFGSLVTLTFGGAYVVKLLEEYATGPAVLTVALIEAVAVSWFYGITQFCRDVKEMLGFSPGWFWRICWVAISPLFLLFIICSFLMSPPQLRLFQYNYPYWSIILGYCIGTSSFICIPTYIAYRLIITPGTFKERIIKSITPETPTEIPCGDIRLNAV
Description: Inhibition of serotonin uptake at human SERT expressed in HEK293 cells

[4] = Metabolic stability in human liver microsomes assessed as systemic clearance; assay type: ADME, Microsome
[5] = Metabolic stability in rat liver microsomes assessed as systemic clearance; assay type: ADME, Microsome
[6] = Apparent permeability across human Caco-2 cells; assay type: ADME, cell-based
[7] = Cmax in rat at 10 mg/kg, po; assay type: ADME, organism-based; set-up: dose 10 mg/kg, route oral; conditions: in vivo
[8] = Tmax in rat at 10 mg/kg, po; assay type: ADME, organism-based; set-up: dose 10 mg/kg, route oral; conditions: in vivo
[9] = AUC in rat at 10 mg/kg, po; assay type: ADME, organism-based; set-up: dose 10 mg/kg, route oral; conditions: plasma
[10] = Drug level in rat brain at 10 mg/kg, po at 1 hr; assay type: ADME, organism-based; set-up: dose 10 mg/kg, route oral; conditions: read-out: Drug uptake
[11] = Drug level in rat brain at 10 mg/kg, po at 4 hrs; assay type: ADME, organism-based; set-up: dose 10 mg/kg, route oral; conditions: read-out: Drug uptake
[12] = Ratio of drug level in brain to plasma in rat at 10 mg/kg, po after 1 hr
[13] = Ratio of drug level in brain to plasma in rat at 10 mg/kg, po after 4 hrs
[14] = Dissociation constant, pKa of the compound; assay type: physicochemical
[15] = Cmax in rat at 30 mg/kg, po; assay type: ADME, organism-based; set-up: dose 30 mg/kg, route oral; conditions: in vivo
[16] = Tmax in rat at 30 mg/kg, po; assay type: ADME, organism-based; set-up: dose 30 mg/kg, route oral; conditions: in vivo
[17] = AUC in rat at 30 mg/kg, po; assay type: ADME, organism-based; set-up: dose 30 mg/kg, route oral; conditions: plasma
[18] = Drug level in rat brain at 30 mg/kg, po at 1 hr; assay type: ADME, organism-based; set-up: dose 30 mg/kg, route oral; conditions: read-out: Drug uptake
[19] = Drug level in rat brain at 30 mg/kg, po at 4 hrs; assay type: ADME, organism-based; set-up: dose 30 mg/kg, route oral; conditions: read-out: Drug uptake
[20] = Ratio of drug level in brain to plasma in rat at 30 mg/kg, po after 1 hr; assay type: ADME, organism-based; set-up: dose 30 mg/kg, route oral
[21] = Ratio of drug level in brain to plasma in rat at 30 mg/kg, po after 4 hrs; assay type: ADME, organism-based; set-up: dose 30 mg/kg, route oral
[22] = Lipophilicity, log P of the compound; assay type: physicochemical; conditions: octanol/water
[23] = Distribution coefficient, log D of the compound; assay type: physicochemical; conditions: octanol/water

Sodium-dependent dopamine transporter, sequence (Q01959 whole entry): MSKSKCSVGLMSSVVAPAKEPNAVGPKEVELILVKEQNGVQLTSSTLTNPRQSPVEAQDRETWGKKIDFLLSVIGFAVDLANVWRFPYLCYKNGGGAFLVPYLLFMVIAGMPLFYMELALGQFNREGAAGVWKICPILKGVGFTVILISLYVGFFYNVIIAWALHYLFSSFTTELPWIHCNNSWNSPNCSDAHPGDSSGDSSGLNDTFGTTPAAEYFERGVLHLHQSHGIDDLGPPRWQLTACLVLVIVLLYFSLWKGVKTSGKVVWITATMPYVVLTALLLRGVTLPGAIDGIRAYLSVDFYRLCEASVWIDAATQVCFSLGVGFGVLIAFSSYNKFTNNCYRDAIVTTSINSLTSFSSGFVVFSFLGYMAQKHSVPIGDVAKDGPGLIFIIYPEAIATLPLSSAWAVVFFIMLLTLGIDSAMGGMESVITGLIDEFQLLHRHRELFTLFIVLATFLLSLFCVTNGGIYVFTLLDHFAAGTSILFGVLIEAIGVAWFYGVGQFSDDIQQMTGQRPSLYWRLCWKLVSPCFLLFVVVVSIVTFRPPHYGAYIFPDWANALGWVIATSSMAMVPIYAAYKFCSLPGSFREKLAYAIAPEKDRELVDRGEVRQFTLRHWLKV
Sodium-dependent noradrenaline transporter, sequence (P23975 whole entry): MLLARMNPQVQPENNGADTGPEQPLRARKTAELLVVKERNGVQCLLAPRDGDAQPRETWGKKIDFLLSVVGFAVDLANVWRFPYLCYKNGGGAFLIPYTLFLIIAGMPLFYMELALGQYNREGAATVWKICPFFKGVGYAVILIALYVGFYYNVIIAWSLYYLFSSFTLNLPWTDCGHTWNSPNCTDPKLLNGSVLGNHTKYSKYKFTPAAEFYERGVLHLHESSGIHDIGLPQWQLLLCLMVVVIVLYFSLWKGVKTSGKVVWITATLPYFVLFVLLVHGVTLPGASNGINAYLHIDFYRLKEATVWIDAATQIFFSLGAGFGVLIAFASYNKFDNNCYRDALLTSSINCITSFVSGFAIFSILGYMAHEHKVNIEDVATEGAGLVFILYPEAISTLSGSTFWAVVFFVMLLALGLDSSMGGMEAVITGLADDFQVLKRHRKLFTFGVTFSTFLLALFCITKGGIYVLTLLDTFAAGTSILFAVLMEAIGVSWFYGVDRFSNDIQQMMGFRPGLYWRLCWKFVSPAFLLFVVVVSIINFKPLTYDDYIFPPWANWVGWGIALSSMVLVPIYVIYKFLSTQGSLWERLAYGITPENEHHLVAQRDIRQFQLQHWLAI

Structure (SMILES) | IC50 [1] | IC50 [2] | IC50 [3] | CLhep predicted [4] | CLhep predicted [5] | Papp [6] | other results
COCCN(C)C(=O)[C@@]1(c2ccsc2)C[C@H]1CN | 1100 nM | > 10000 nM | 590 nM | – | – | – | –
CCN(CC)C(=O)[C@@]1(c2nc3ccccc3s2)C[C@H]1CN | 2200 nM | > 10000 nM | 9600 nM | – | – | – | –
CCN(CC)C(=O)[C@@]1(c2ccc(Cl)s2)C[C@H]1CN | 40 nM | > 10000 nM | 520 nM | – | – | – | –
C=C(F)CN(CCOC)C(=O)[C@@]1(c2ccsc2)C[C@H]1CN | 3.9 nM | > 10000 nM | 40 nM | < 2.6 mL/min/kg | 54 mL/min/kg | 3.4 ×10⁻⁶ cm/s | –
C#CCN(CC#C)C(=O)[C@@]1(c2ccsc2)C[C@H]1CN | 8.2 nM | > 10000 nM | 84 nM | < 2.6 mL/min/kg | 42 mL/min/kg | 16.4 ×10⁻⁶ cm/s | –
NC[C@@H]1C[C@@]1(C(=O)N1C=CCCC1)c1ccsc1 | 200 nM | > 10000 nM | 1800 nM | – | – | – | –
CCN(CC)C(=O)[C@@]1(c2ccccn2)C[C@H]1CN | 1500 nM | > 10000 nM | 3500 nM | – | – | – | –
CCN(CC)C(=O)[C@@]1(c2sc(Cl)c(Cl)c2Cl)C[C@H]1CN | 270 nM | > 10000 nM | 2000 nM | – | – | – | –
NC[C@@H]1C[C@@]1(C(=O)N1CCCc2ccccc21)c1ccsc1 | 20 nM | > 10000 nM | 420 nM | – | – | – | –
C#CCN(CC=C)C(=O)[C@@]1(c2ccsc2)C[C@H]1CN | 2.8 nM | > 10000 nM | 71 nM | < 2.6 mL/min/kg | 44 mL/min/kg | 9.6 ×10⁻⁶ cm/s | –
CCN(CC)C(=O)[C@@]1(c2cccs2)C[C@H]1CN | 76 nM | > 10000 nM | 520 nM | – | – | – | –
CCN(CC)C(=O)[C@@]1(c2cccnc2)C[C@H]1CN | 1500 nM | > 10000 nM | 4000 nM | – | – | – | –
CCN(CC)C(=O)[C@@]1(c2cc3cc(F)ccc3s2)C[C@H]1CN | 150 nM | > 10000 nM | 290 nM | – | – | – | –
CCN(CC)C(=O)[C@@]1(c2cc3ccccc3s2)C[C@H]1CN | 65 nM | 2400 nM | 620 nM | – | – | – | –
C#CCN(C)C(=O)[C@@]1(c2ccsc2)C[C@H]1CN | 110 nM | > 10000 nM | 34 nM | – | – | – | –
C=CCN(CCOC)C(=O)[C@@]1(c2ccsc2)C[C@H]1CN | 20 nM | > 10000 nM | 47 nM | < 2.6 mL/min/kg | 52 mL/min/kg | 2.4 ×10⁻⁶ cm/s | –
CCN(CC)C(=O)[C@@]1(c2ccsc2)C[C@H]1CNC | 3700 nM | > 10000 nM | – | – | – | – | –

Structure (SMILES) | IC50 [1] | IC50 [2] | IC50 [3] | CLhep predicted [4] | CLhep predicted [5] | Papp [6] | other results
C=CCN(C(=O)[C@@]1(c2ccsc2)C[C@H]1CN)C1CC1 | 8.7 nM | > 10000 nM | 26 nM | < 2.6 mL/min/kg | 42 mL/min/kg | 5.3 ×10⁻⁶ cm/s | –
CCN(CC)C(=O)[C@@]1(c2ccc(Br)s2)C[C@H]1CN | 29 nM | 6300 nM | 350 nM | – | – | – | –
C#CCN(CCOC)C(=O)[C@@]1(c2ccsc2)C[C@H]1CN | 64 nM | > 10000 nM | 47 nM | < 2.6 mL/min/kg | 18 mL/min/kg | 3.2 ×10⁻⁶ cm/s | –
CCN(CC)C(=O)[C@]1(c2ccccc2)C[C@@H]1CN | – | – | – | < 2.6 mL/min/kg | 18 mL/min/kg | – | –
CCN(CC)C(=O)[C@@]1(c2ccccc2)C[C@H]1CN [LEVOMILNACIPRAN] | – | – | – | – | 24 mL/min/kg | – | Cmax [7]: 232 ng/mL; Tmax [8]: 18 min; AUC [9]: 566 ng·h/mL; concentration at 1 h [10]: 103 ng/g; concentration at 4 h [11]: 55 ng/g; Kp at 1 h [12]: 0.42; Kp at 4 h [13]: 0.86; pKa [14]: 9.6
NC[C@@H]1C[C@@]1(C(=O)N1Cc2ccccc2C1)c1ccsc1 | 37 nM | 6900 nM | – | 10 mL/min/kg | 66 mL/min/kg | 4.7 ×10⁻⁶ cm/s | –
NC[C@@H]1C[C@@]1(C(=O)N1C=COc2ccccc21)c1ccsc1 | 12 nM | > 10000 nM | 340 nM | 13 mL/min/kg | 67 mL/min/kg | 20 ×10⁻⁶ cm/s | –
C=C(F)CN(C)C(=O)[C@@]1(c2ccsc2)C[C@H]1CN | 44 nM | > 10000 nM | 60 nM | < 2.6 mL/min/kg | 32 mL/min/kg | 13.8 ×10⁻⁶ cm/s | –
C=CCN(CC=C)C(=O)[C@@]1(c2ccsc2)C[C@H]1CN | 2.7 nM | 8300 nM | 76 nM | 4.7 mL/min/kg | 59 mL/min/kg | 9.5 ×10⁻⁶ cm/s | –
CCN(CC)C(=O)[C@@]1(c2ccsc2)C[C@H]1CN(C)C | > 10000 nM | > 10000 nM | > 10000 nM | – | – | – | –
C=CCN(CC)C(=O)[C@@]1(c2ccsc2)C[C@H]1CN | 5.6 nM | > 10000 nM | 140 nM | 6.8 mL/min/kg | 57 mL/min/kg | 6.4 ×10⁻⁶ cm/s | Cmax [15]: 201 ng/mL; Tmax [16]: 30 min; AUC [17]: 502 ng·h/mL; concentration at 1 h [18]: 39 ng/g; concentration at 4 h [19]: 15 ng/g; Kp at 1 h [20]: 0.3; Kp at 4 h [21]: 0.4; logP [22]: 1.5; pKa [14]: 9.5; logD [23]: 0.1
CCN(CC)C(=O)[C@@]1(c2ccsc2)C[C@H]1CN | 49 nM | > 10000 nM | 830 nM | 7.1 mL/min/kg | 34 mL/min/kg | 4.7 ×10⁻⁶ cm/s | –
CCN(CC)C(=O)[C@@]1(c2csc3ccccc23)C[C@H]1CN | 170 nM | > 10000 nM | 3100 nM | – | – | – | –
NC[C@@H]1C[C@@]1(C(=O)N1CCc2ccccc2C1)c1ccsc1 | 8.3 nM | > 10000 nM | 320 nM | – | – | – | –
CCN(CC)C(=O)[C@@]1(c2cc(Cl)c(Cl)s2)C[C@H]1CN | 560 nM | > 10000 nM | 2200 nM | – | – | – | –
C=CCN(C)C(=O)[C@@]1(c2ccsc2)C[C@H]1CN | 100 nM | > 10000 nM | 60 nM | – | – | – | –
